Patent US20210087206A1, “MACROCYCLIC KINASE INHIBITORS AND THEIR USE” (TURNING POINT THERAPEUTICS, INC., priority 2017, published 2021)
pIC50: −log10 of the molar value.

Experiments:
Test in all cases: Cell proliferation assay (CellTiter-Glo)
Assay type in all cases: cell-based
BaF3 EML4-ALK = molecular target: T1, BaF3 EML4-ALK (Homo sapiens, UniProt Q9UM73); settings: anti-cell proliferation, 72 hours
T1 construct: The EML4-ALK gene (variant 1) was synthesized at GenScript and cloned into pCDH-CMV-MCS-EF1-Puro plasmid (System Biosciences, Inc); fused on or other part: EML4 N-terminal part (variant 1: exons 1-13, with the coiled-coil that oligomerises the fusion) fused to the intracellular part of ALK, which contains the kinase domain; Q9HC35 (Echinoderm microtubule-associated protein-like 4)
T1 sequence (Q9UM73 whole entry, stated change not applied, the tested form may be a part): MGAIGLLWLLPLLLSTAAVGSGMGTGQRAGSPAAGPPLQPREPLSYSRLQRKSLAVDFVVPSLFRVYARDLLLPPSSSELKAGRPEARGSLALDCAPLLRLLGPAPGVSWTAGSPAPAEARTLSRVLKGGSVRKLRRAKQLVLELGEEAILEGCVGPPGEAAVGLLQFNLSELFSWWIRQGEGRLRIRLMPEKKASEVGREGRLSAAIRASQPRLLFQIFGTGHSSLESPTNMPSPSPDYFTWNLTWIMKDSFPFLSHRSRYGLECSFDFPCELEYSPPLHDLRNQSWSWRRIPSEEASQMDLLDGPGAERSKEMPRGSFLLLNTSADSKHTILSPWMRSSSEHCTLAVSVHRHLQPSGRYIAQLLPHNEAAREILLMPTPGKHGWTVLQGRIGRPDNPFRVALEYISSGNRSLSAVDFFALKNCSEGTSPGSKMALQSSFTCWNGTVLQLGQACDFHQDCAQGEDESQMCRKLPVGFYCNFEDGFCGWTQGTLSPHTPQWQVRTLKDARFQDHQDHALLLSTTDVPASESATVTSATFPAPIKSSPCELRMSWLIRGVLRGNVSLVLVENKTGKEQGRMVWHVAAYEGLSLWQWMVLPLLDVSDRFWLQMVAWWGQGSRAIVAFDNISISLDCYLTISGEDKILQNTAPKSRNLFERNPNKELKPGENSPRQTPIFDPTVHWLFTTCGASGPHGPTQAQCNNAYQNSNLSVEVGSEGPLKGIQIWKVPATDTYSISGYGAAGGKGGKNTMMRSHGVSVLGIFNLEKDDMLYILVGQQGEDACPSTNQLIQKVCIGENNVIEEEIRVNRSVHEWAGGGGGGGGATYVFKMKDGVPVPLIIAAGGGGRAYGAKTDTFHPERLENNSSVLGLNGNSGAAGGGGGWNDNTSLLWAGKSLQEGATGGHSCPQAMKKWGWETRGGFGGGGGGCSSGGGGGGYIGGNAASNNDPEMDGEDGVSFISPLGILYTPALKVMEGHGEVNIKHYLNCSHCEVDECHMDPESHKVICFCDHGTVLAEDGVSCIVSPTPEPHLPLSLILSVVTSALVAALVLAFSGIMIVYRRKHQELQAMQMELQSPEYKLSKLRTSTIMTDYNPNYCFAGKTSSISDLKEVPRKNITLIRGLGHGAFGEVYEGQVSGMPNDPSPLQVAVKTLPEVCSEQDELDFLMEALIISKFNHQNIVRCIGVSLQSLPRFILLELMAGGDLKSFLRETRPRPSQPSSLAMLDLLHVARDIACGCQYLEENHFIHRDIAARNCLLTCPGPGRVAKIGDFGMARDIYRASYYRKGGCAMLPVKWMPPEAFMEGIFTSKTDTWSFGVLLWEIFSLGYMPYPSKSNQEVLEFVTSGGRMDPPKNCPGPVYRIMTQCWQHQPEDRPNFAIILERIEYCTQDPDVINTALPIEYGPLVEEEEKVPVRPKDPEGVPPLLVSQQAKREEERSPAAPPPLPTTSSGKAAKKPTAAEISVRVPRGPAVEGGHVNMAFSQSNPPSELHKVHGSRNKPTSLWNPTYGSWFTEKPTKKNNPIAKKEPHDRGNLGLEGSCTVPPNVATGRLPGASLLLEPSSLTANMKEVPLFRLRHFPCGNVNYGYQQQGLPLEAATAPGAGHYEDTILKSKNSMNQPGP
Experimental: Cloning and Ba/F3 or NIH3T3 Stable Cell Line Creation
The EML4-ALK gene (variant 1) was synthesized at GenScript and cloned into pCDH-CMV-MCS-EF1-Puro plasmid (System Biosciences, Inc). Ba/F3-EML4-ALK wild type were generated by transducing Ba/F3 cells with lentivirus containing EML4-ALK wide type. Stable cell lines were selected by puromycin treatment, followed by IL-3 withdrawal. Briefly, 5×10^6 Ba/F3 cells were transduced with lentivirus supernatant in the presence of 8 μg/mL protamine sulfate. The transduced cells were subsequently selected with 1 μg/mL puromycin in the presence of IL3-containing medium RPMI1640, plus 10% FBS. After 10-12 days of selection, the surviving cells were further selected for IL3 independent growth.
(§1) Cell Proliferation Assays:
(§2) Two thousand cells per well were seeded in 384 well white plate for 24 hrs, and then treated with compounds for 72 hours (37° C., 5% CO2). Cell proliferation was measured using CellTiter-Glo luciferase-based ATP detection assay (Promega) following the manufactures's protocol. IC50 determinations were performed using GraphPad Prism software (GraphPad, Inc., San Diego, Calif.).

KM12 (TPM3-TRKA) = settings: Homo sapiens, anti-cell proliferation, 72 hours
Experimental: (§3) Cell Lines and Cell Culture:
(§4) Colorectal cell line KM 12 (harboring endogenous TPM3-TRKA fusion gene) was obtained from NCI. Acute myelogenous cell line KG-1 (harboring endogenous OP2-FGFR1 fusion gene) were purchased from ATCC.
as §1, §2

KG-1 cell (OP2-FGFR1) = settings: Homo sapiens, anti-cell proliferation, 72 hours
Experimental: as §3, §4, §1, §2

Row | SMILES | pIC50 (BaF3 EML4-ALK) | pIC50 (KM12 (TPM3-TRKA)) | pIC50 (KG-1 cell (OP2-FGFR1))
1 | C[C@@H]1COc2ncc(F)cc2CN2c3nc4c(cnn4cc3OC[C@H]2C)C(=O)N1 [Compound 14, (4R,13R)-8-fluoro-4,13-dimethyl-3,4,13,14-tetrahydro-6H-18,1-(metheno)[1,4]oxazino[3,4-i]pyrazolo[4,3-f]pyrido[3,2-l][1,4,8,10]oxatriazacyclotridecin-15(12H)-one] | 7.86 | > 9.70 | 7.47
2 | CC[C@@H]1COc2cn3ncc4c3nc2N1Cc1cc(F)cnc1OC[C@@H](C)NC4=O [Compound 15, (4R,13R)-4-ethyl-8-fluoro-13-methyl-3,4,13,14-tetrahydro-6H-18,1-(metheno)[1,4]oxazino[3,4-i]pyrazolo[4,3-f]pyrido[3,2-l] [1,4,8,10]oxatriazacyclotridecin-15(12H)-one] | 7.85 | > 9.70 | 7.60
3 | C[C@@H]1COc2c(F)cc(F)cc2CN2c3nc4c(cnn4cc3OC[C@H]2C)C(=O)N1 [Compound 16, (4R,13R)-8,10-difluoro-4,13-dimethyl-3,4,13,14-tetrahydro-6H-18,1-(metheno)[1,4]oxazino-[3,4-i]pyrazolo[4,3-f][1,4,8,10]-benzoxatriazacyclotridecin-15(12H)-one] | 7.04 | > 9.70 | 6.08
4 | C[C@H]1CNC(=O)c2cnn3cc4c(nc23)N(CCCO4)Cc2cc(F)ccc2O1 [Compound 17, (13S)-9-fluoro-13-methyl-4,5,14,15-tetrahydro-3H,7H-19,1-(metheno)[1,4]oxazepino-[3,4-i]pyrazolo[4,3-f][1,4,8,10]-benzoxatriazacyclotridecin-16(13H)-one] | 5.58 | > 9.70 | 5.30
5 | C[C@H]1CNC(=O)c2cnn3cc4c(nc23)N(Cc2cc(F)ccc2O1)[C@@H](C)CCO4 [Compound 18, (5S,13S)-9-fluoro-5,13-dimethyl-4,5,14,15-tetrahydro-3H,7H-19,1-(metheno)[1,4]oxazepino[3,4-i]-pyrazolo[4,3-f][1,4,8,10]benzo-xatriaxacyclotridecin-16(13H)-one] | < 5.00 | > 9.70 | < 5.00
6 | C[C@@H]1CCOc2cn3ncc4c3nc2N1Cc1cc(F)ccc1O[C@@H](C)CNC4=O [Compound 19, (5R,13S)-9-fluoro-5,13-dimethyl-4,5,14,15-tetrahydro-3H,7H-19,1-(metheno)[1,4]oxazepino[3,4-i]-pyrazolo[4,3-f][1,4,8,10]benzo-xatriazacyclotridecin-16(13H)-one] | 5.21 | > 9.70 | 5.00
7 | C[C@@H]1COc2cn3ncc4c3nc2N(Cc2cc(F)ccc2O[C@@H](C)CNC4=O)C1 [Compound 20, (4S,13S)-9-fluoro-4,13-dimethyl-4,5,14,15-tetrahydro-3H,7H-19,1-(metheno)[1,4]oxazepino[3,4-i]-pyrazolo[4,3-f][1,4,8,10]benzo-xatriazacyclotridecin-16(13H)-one] | 5.31 | 8.29 | 5.62
8 | C[C@@H]1CCOc2cn3ncc4c3nc2N1Cc1cc(F)cnc1O[C@@H](C)CNC4=O [Compound 21, (5R,13S)-9-fluoro-5,13-dimethyl-4,5,14,15-tetrahydro-3H,7H-19,1-(metheno)[1,4]oxazepino[3,4-i]pyrazolo[4,3-f]pyrido[3,2-l][1,4,8,10]oxatriazacyclotridecin-16(13H)-one] | 5.52 | 9.22 | 5.74
9 | C[C@@H]1COc2ncc(F)cc2CN2c3nc4c(cnn4cc3OCC[C@H]2C)C(=O)N1 [Compound 22, (5R,14R)-9-fluoro-5,14-dimethyl-4,5,14,15-tetrahydro-3H,7H-19,1-(metheno)[1,4]oxazepino[3,4-i]-pyrazolo[4,3-f]pyrido[3,2-l] [1,4,8,10]oxatriazacyclotridecin-16(13H)-one] | 6.14 | > 9.70 | 6.11
10 | C[C@@H]1CCOc2cn3ncc4c3nc2N1Cc1c(ccc(F)c1Cl)O[C@@H](C)CNC4=O [Compound 23, (5R,13S)-8-chloro-9-fluoro-5,13-dimethyl-4,5,14,15-tetrahydro-3H,7H-19,1-(metheno)[1,4]-oxazepino[3,4-i]pyrazolo[4,3-f] [1,4,8,10]benzoxatriazacyclo-tridecin-16(13H)-one] | 5.71 | > 9.70 | 5.02
11 | C[C@@H]1COc2ncc(F)cc2CN2c3nc4c(cnn4cc3OC[C@H]2C2CC2)C(=O)N1 [Compound 25, (4R,13R)-4-cyclopropyl-8-fluoro-13-methyl-3,4,13,14-tetrahydro-6H-18,1-(metheno)[1,4]oxazino[3,4-i]pyrazolo[4,3-f]pyrido[3,2-l][1,4,8,10]oxatriazacyclotridecin-15(12H)-one] | 7.05 | > 9.70 | 6.88

Second part, led by results:

Row | pIC50 (BaF3 EML4-ALK) | SMILES | pIC50 (KM12 (TPM3-TRKA)) | pIC50 (KG-1 cell (OP2-FGFR1))
12 | 6.16 | C[C@H]1CNC(=O)c2cnn3cc4c(nc23)N(Cc2cc(F)cnc2O1)[C@H](C1CC1)CO4 [Compound 26, (4R,12S)-4-cyclopropyl-8-fluoro-12-methyl-3,4,13,14-tetrahydro-6H-18,1-(metheno)[1,4]oxazino-[3,4-i]pyrazolo[4,3-f]pyrido-[3,2-l]-[1,4,8,10]oxatriazacyclo-tridecin-15(12H)-one] | > 9.70 | 6.16
13 | 6.22 | C[C@H]1CNC(=O)c2cnn3cc4c(nc23)N(Cc2cc(F)cnc2O1)C1(CC1)CO4 [Compound 27, (12′S)-8′-fluoro-12′-methyl-3′H,6′H,12′H,13′H,14′H,15′H-spiro[cyclopropane-1,4′-[2,11]-dioxa[5,10,14,17,18,19]hexaaza-[18,1](metheno)[1,4]oxazino[3,4-i]pyrazolo[4,3-f]pyrido[3,2-l] [1,4,8,10]oxatriazacyclotridecin]-15′-one] | > 9.70 | 5.45
14 | 6.74 | C[C@@H]1COc2ncc(F)cc2CN2c3nc4c(cnn4cc3OCC23CC3)C(=O)N1 [Compound 28, (13′R)-8′-fluoro-13′-methyl-3′H,6′H,12′H,14′H,15′H-spiro-[cyclopropane-1,4′-[2,11]dioxa-[5,10,14,17,18,19]hexaaza[18,1]-(metheno)[1,4]oxazino[3,4-i]-pyrazolo[4,3-f]pyrido[3,2-l] [1,4,8,10]oxatriazacyclotridecin]-15′-one] | > 9.70 | 6.10
15 | 6.08 | C[C@@H]1COc2cn3ncc4c3nc2N(Cc2cc(F)cnc2OC[C@@H](C)NC4=O)C1 [Compound 29, (4S,14R)-9-fluoro-4,14-dimethyl-4,5,14,15-tetrahydro-3H,7H-19,1-(metheno)[1,4]oxazepino[3,4-i]-pyrazolo[4,3-f]pyrido[3,2-l] [1,4,8,10]oxatriazacyclotridecin-16(13H)-one] | 8.02 | 6.89
16 | 5.13 | C[C@@H]1COc2cn3ncc4c3nc2N(Cc2cc(F)cnc2O[C@@H](C)CNC4=O)C1 [Compound 30, (4S,13S)-9-fluoro-4,13-dimethyl-4,5,14,15-tetrahydro-3H,7H-19,1-(metheno)[1,4]oxazepino[3,4-i]-pyrazolo[4,3-f]pyrido[3,2-l] [1,4,8,10]oxatriazacyclotridecin-16(13H)-one] | 7.38 | 6.27
17 | 5.88 | C[C@@H]1COc2cn3ncc4c3nc2N(Cc2cc(F)ccc2OC[C@@H](C)NC4=O)C1 [Compound 31, (4S,14R)-9-fluoro-4,14-dimethyl-4,5,14,15-tetrahydro-3H,7H-19,1-(metheno)[1,4]oxazepino[3,4-i]-pyrazolo[4,3-f][1,4,8,10]benzo-xatriazacyclotridecin-16(13H)-one] | > 9.70 | 6.11
18 | 7.13 | C[C@@H]1CCOc2ncc(F)cc2CN2c3nc4c(cnn4cc3OC[C@H]2C)C(=O)N1 [Compound 32, (6R,16R)-12-fluoro-6,16-dimethyl-5,6,7,8,16,17-hexahydro-4H,14H-1,19-(metheno)[1,4]oxazino[4,3-e]pyrazolo[3,4-h]pyrido[2,3-b] [1,5,7,11]oxatriazacyclotetradecin-4-one] | > 9.70 | 6.86
19 | 7.23 | C[C@@H]1COc2cn3ncc4c3nc2N1Cc1cc(F)cnc1OCCCNC4=O [Compound 33, (16R)-12-fluoro-16-methyl-5,6,7,8,16,17-hexahydro-4H,14H-1,19-(metheno)[1,4]oxazino[4,3-e]pyrazolo[3,4-h]pyrido[2,3-b] [1,5,7,11]oxatriazacyclotetradecin-4-one] | > 9.70 | 7.43
20 | 7.63 | C[C@@H]1COc2cn3ncc4c3nc2N1Cc1cc(F)cnc1OCC1(CC1)NC4=O [Compound 34, (4′R)-8′-fluoro-4′-methyl-3′H,4′H,6′H,12′H,14′H,15′H-spiro[cyclopropane-1,13′-[2,11]dioxa[5,10,14,17,18,19]hexaaza[18,1](metheno)[1,4]oxazino[3,4-i]pyrazolo[4,3-f]pyrido[3,2-l][1,4,8,10]oxatriazacyclotridecin]-15′-one] | > 9.70 | 7.90
